# B1: C5a: complement component, anaphylatoxin (Complement Technology) (protein, UniProt P01031 678-751, looked up)
# C5a anaphylatoxin: TLQKKIEEIAAKYKHSVVKKCCYDGACVNNDETCEQRAARISLGPRCIKAFTECCVVASQLRANISHKDMQLGR
# modifications: C5a anaphylatoxin
# Tests used:
# [1] = system: VEGF secretion in ARPE-19 cells; experiment: VEGF secretion into apical supernatant of ARPE-19 monolayers (ELISA); type: cell-based, human
# Method: (§1) Cell culture experiments: Cells. […] Frontiers in Aging Neuroscience 9).
# VEGF ELISA. VEGF in the supernatant was measured using the Quantikine® Human VEGF Immunoassay (R & D System) according to the manufacturer's protocol. In brief, 200 μl of standard/sample was mixed with 50 μl of assay diluent and added to the plate precoated with the capture antibody. After washing, 200 μl of the VEGF detection antibody (polyclonal antibody specific for human VEGF conjugated to horseradish peroxidase) was added, followed by freshly prepared substrate reagents (stabilized hydrogen peroxide and tetramethylbenzidine). The reaction was terminated using 50 μl of stop solution and absorbance was measured at λ1 450 nm with wavelength correction λ2 at 540 nm. VEGF concentration of samples were calculated comparing the absorbance with the standards and converted into fold change considering the serum-free condition as 1 in the scale.
# [2] = system: CTGF expression in ARPE-19 cells; experiment: Thrombin-induced CTGF expression in ARPE-19 cell lysates (western blot); conditions: for reduction of thrombin-induced CTGF expression: thrombin 1 U/mL
# Method: Cell culture experiments: Cells. Human ARPE-19 (ATCC® CRL-2302™; American Type Culture Collection, Manassas VA) cells were cultured in DMEM cell culture media (Gibco/ThermoFisher Scientific) containing high glucose DMEM with D-glucose (4.5 g/L), L-glutamine, sodium pyruvate (110 mg/L), Penicillin and Streptomycin (1×) and 10% of FBS. Cells (<passage 10 after purchase) were expanded in T75 cell culture flasks at 37° C., in the presence of 5% CO2. Confluent cells were trypsinized with 0.05% trypsin (Gibco), and equal numbers of cells were seeded on 6-well transwell filters/plate (Costar). […] Integrity of the cell monolayer was assessed by Transepithelial resistance (TER) measurements using an EVOM volt-ohmmeter (World Precision Instruments) four weeks after plating. RPE monolayers with a stable TER repeatedly measured as ˜40-45 S2 cm 2 were used for these experiments.
# Treatments. Prior to each experiment, the cell monolayer was washed with serum-free medium (SFM) and maintained in SFM for 24 hours. […] Treatments were performed on the apical side of the transwell membrane, which represents the retinal side of the RPE in vivo. Some of the cells were treated with thrombin (EMD Millipore Corp), complement components C3a, C5a (Complement Technology), thrombin agonist PAR1-AP (Sigma-Aldrich; amino acid sequence SFLLRN (SEQ ID NO: 1)), thrombin inhibitor dabigatran etexilate (Sigma-Aldrich), C3 inhibitor compstatin (R&D Systems), AP inhibitor TT30 (Alexion Therapeutics), a protease inhibitor alpha1-antitrypsin (Sigma-Aldrich), and the thrombin receptor proteinase activated receptor 1 inhibitor SCH 79797 (Sigma-Aldrich). Treatments were performed 60 min prior to the addition of thrombin. Cell culture supernatant and lysate were collected after specific time points or after 24 hrs of treatment and stored at −20° C. for later use.
# Western blotting. […] Cell lysates were collected in RIPA cell lysis buffer containing 150 mM NaCl, 1.0% IGEPAL® CA-630, 0.5% sodium deoxycholate, 0.1% SDS, 50 mM Tris (pH 8.0) (Sigma-Aldrich) in presence of 1×protease inhibitor (Sigma-Aldrich). Equal amount of each samples were loaded on 4-20% Criterion™ TGX™ precast gels (Bio-Rad Laboratories, Inc.) (Annamalai, B., et al. (2020). Invest Ophthalmol Vis Sci 61, 45). Proteins were transferred to a nitrocellulose membrane and incubated in primary antibody followed by appropriate secondary antibodies coupled to peroxidase, followed by band development and detection using Clarity™ Western ECL blotting substrate (Bio-Rad Laboratories, Inc.) and chemiluminescent detection. Protein bands were scanned and densities quantified using ImageJ software. The following antibodies were used: C3a (1:1000; Complement Technology), C5a (1:1000; Abcam), connective tissue growth factor/CTGF (1:1000; Abcam), C3d anti-C3d (clone 11, 1:1000; generation of the antibody is described in (Thurman, J. M., et al. (2013). J Clin Invest 123, 2218-2230)), VEGF (1:1000, Santa Cruz Biotechnology, Inc.), β-actin (1:2000; Cell Signaling Technology) and concentrations selected based on the data sheet recommendations.
# ARPE-19 cell monolayers were treated with thrombin (0.5-10 U/ml) and cell lysates were collected and analyzed for CTGF levels at 4 hrs post treatment by western blotting.
# [3] = system: complement component C3; experiment: Thrombin-mediated C3 cleavage in apical supernatants of ARPE-19 cells (western blot); type: cell-based, human; conditions: 100 μM
# Method: Second, it was tested whether thrombin can cleave complement components (Huber-Lang, M., et al. (2006). Nat Med 12, 682-687; and Krisinger, M. J., et al. (2012). Blood 120, 1717-1725), specifically C3 and C5, producing cleavage products potentially different from those produced by classical convertases. To test the effects of thrombin on complement cleavage, the apical supernatants of treated ARPE-19 cell monolayers were analyzed by western blotting. Cleavage of C3α was evaluated using an antibody specific for C3a (FIG. 5A, left-hand blot). The C3a antibody detected C3, the C3α band as well as other fragments containing C3a. Thrombin caused a concentration dependent cleavage of complement component C3 (˜190 kDa), caused reduction of the 120 kDa C3a band and generation of a new 80 kDa fragment. Fragments at 32 kDa and 9-10 kDa with higher doses of thrombin treatment (FIG. 5A, 10 U/mL) were also observed. The 9-10 kDa band ran at the same molecular weight as purified C3a (FIG. 11). The reduction of the 120 kDa fragment was correlated with the generation of the 80 kDa fragment (FIG. 5B). The loss of the 120 kDa fragment was prevented by either dabigatran (10 μM) or the C3 inhibitor compstatin (100 μM), which inhibits complement both on cell membranes as well as in fluid phase, but not by TT30 (10 μM), which is an inhibitor that prevents membrane-bound AP activation (FIG. 5C). […]
# [4] = target: thrombin (Homo sapiens, UniProt P00734); experiment: Thrombin activity in cell-free system; conditions: 100 μM
# Method: Thrombin activity in cell-free system. To measure the level of active thrombin in cell-free system, known concentrations of thrombin were prepared in 100 μl of assay buffer (50 mM Tris, 100 mM NaCl, and 0.01% BSA; pH 7.5), subsequently 50 μl of thrombin substrate was added and incubated at 37° C. Fluorescence was measured at 405 nm using the Biotek Synergy HT Microplate Reader and thrombin activity was determined by extrapolation from a thrombin standard curve. Effects of inhibitors were tested by pre-incubating the inhibitors with thrombin, before substrate incorporation.
# [5] = system: ARPE-19 cell monolayers; experiment: Transepithelial resistance (TER) of ARPE-19 monolayers; type: cell-based, human
# Method: as §1
# Thrombin reduces barrier function in RPE cells and induces CTGF expression and VEGF secretion. […] Thrombin is a serine-protease and is a known contributor to the damage of the blood-brain barrier (Machida, T., et al. (2017). PLoS One 12, e0177447). To examine the effects of thrombin on the blood-retina barrier (i.e., TER), dose- (0.5-10.0 U/ml) and time- (4 and 24 hrs) dependent treatments were performed on stable ARPE-19 cell monolayers, and treatment effects on TER levels to TER at baseline (serum free media/SFM before treatment, 0 hrs) (FIG. 2) were compared.
molecule,measurement,setting,value
CC(C)c1ccc(Cn2ccc3c4c(N)nc(NC5CC5)nc4ccc32)cc1 [SCH79797],effect on thrombin-induced VEGF secretion,[1]; SCH79797,reduced
same,reduction of thrombin-induced CTGF expression,[2]; SCH79797 250 μM,1.7 fold
CC[C@H](C)[C@H](N)C(=O)N[C@H]1CSSC[C@@H](C(=O)N[C@H](C(N)=O)[C@@H](C)O)NC(=O)[C@H](CCCN=C(N)N)NC(=O)[C@H](Cc2cnc[nH]2)NC(=O)[C@H](Cc2cnc[nH]2)NC(=O)CNC(=O)[C@H](Cc2c[nH]c3ccccc23)NC(=O)[C@H](CC(=O)O)NC(=O)[C@H](CCC(N)=O)NC(=O)[C@H](C(C)C)NC(=O)[C@H](C(C)C)NC1=O [compstatin],effect on thrombin-induced VEGF secretion,[1]; compstatin,partially reduce
same,effect on thrombin-mediated loss of the 120 kDa C3 fragment,[3],prevented
same,effect on thrombin enzyme activity,[4],did not affect
same,effect on thrombin-induced CTGF expression,[2]; compstatin,partially reduce
"C3a: complement component, anaphylatoxin (Complement Technology)",effect on VEGF secretion,"[1]; C3a, 260 nM",weak stimulator
alpha1-antitrypsin: general (non-specific) protease inhibitor (Sigma-Aldrich),reduction of thrombin-induced CTGF expression,[2]; alpha1-antitrypsin 1 mg/mL,5.3 fold
thrombin,increase of VEGF in apical supernatants,[1]; thrombin alone,2.5 fold
same,effect on TER,"[5]; thrombin 0.5 U/mL, apical",barely affected
same,effect on TER,"[5]; thrombin 2.5 U/ml, 24 hrs",significant damage to the epithelial barrier integrity
same,effect on TER,"[5]; thrombin 5 U/ml and 10 U/ml, 4 hrs",significant barrier function loss
same,effect on CTGF expression,"[2]; thrombin, 4 hrs, P<0.05",significantly increased
B1,effect on VEGF secretion,"[1]; C5a, 52 nM",increasing VEGF levels to that identified by thrombin stimulation
